Assay results published in the supplement of paper PMC3974653.
Where a name gives a salt, the structure may show the parent alone.

tested on: MTT (mouse pheochromocytoma); assay: IC50 of cell viability (ATP content); conditions: (24 or 48 h)
Procedure, shortened: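 MTT mouse pheochromocytoma cells were seeded into white 1536-well plates at 5 µl per well from a 200,000 cells/ml suspension in DMEM with 5% FBS and 1% horse serum, then cultured overnight at 37°C, 5% CO2. A pintool added 23 nl of library compound in DMSO at 8 concentrations (final 0.5 nM to 46 µM) for 24 or 48 hrs, and CellTiter-Glo ATP luminescence was read after 15 minutes. Signals were scaled so that positive-control wells equalled 100% and DMSO wells 0%. IC50 values were derived by fitting a four-parameter logistic curve.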

Row | IC50 of cell viability | Compound
1 | > 46 µM | C[N+](C)(C)CCOC(=O)CCC(=O)OCC[N+](C)(C)C.[Cl-].[Cl-] [Succinylcholine chloride]
2 | > 46 µM | N[S+](=O)([O-])c1cc([C@]2(O)NC(=O)c3ccccc32)ccc1Cl [Chlorthalidone]
3 | > 46 µM | CN1CCC[C@@H]1Cc1c[nH]c2ccc(CC[S+](=O)([O-])c3ccccc3)cc12 [ELETRIPTAN HYDROBROMIDE]
4 | > 46 µM | COc1nc(N)nc2c1ncn2C1OC(CO)C(O)C1O (stereo not drawn) [NELARABINE]
5 | > 46 µM | C=CCOC(Cn1ccnc1)c1ccc(Cl)cc1Cl (stereo not drawn) [Imazalil sulphate]
6 | > 46 µM | CN(C)[C@H]\1[C@@H]2C[C@@H]\3[C@@H](O)C4=C(Cl)C=CC(=C4C(=O)C3=C(\O)[C@@]2(O)C(=O)\C(=C1O)C(N)=O)O [Demeclocycline hydrochloride]
7 | > 46 µM | COc1ccc([S+](=O)([O-])N2c3ccc(Cl)cc3[C@](O)(c3ccccc3Cl)[C@@H]2C(=O)N2CCC[C@H]2C(N)=O)cc1OC [RELCOVAPTANUM]
8 | > 46 µM | Cc1c(C(=O)NCCO)[n+](=O)c2ccccc2n1[O-]
9 | > 46 µM | CCN(CC)CCSC(=O)C(c1ccccc1)c1ccccc1 [Thiphenamil hydrochloride]
10 | > 46 µM | Cc1cc(CC(=O)O)n(C)c1C(=O)c1ccc(Cl)cc1 [ZOMEPIRAC SODIUM]
11 | > 46 µM | CC1(C)[C@@H]2CC[C@]1(C)[C@@H](OC(=O)CSC#N)C2 [isobornyl thiocyanoacetate]
12 | > 46 µM | CCCC[C@@H](CC)COC(=O)C[C@H](C(=O)OC[C@H](CC)CCCC)S(=O)(=O)[O-] [Dioctyl sulfosuccinate sodium salt]
13 | > 46 µM | CCCCCC(O)/C=C/C=O (racemic) [(±)-4-Hydroxynon-2-enal]
14 | > 46 µM | CC[N+](CC)(CC)CCOc1cccc(OCC[N+](CC)(CC)CC)c1OCC[N+](CC)(CC)CC [GALLAMINE]
15 | > 46 µM | Cc1ccccc1OCC(O)CNCCOc1ccc(C(N)=O)cc1 (stereo not drawn) [TOLAMOLOLUM]
16 | > 46 µM | CN(C)C(=N)NC(=N)N [Metformin hydrochloride]
17 | > 46 µM | Cc1ccc(N)cc1O [5-Amino-o-cresol]
18 | > 46 µM | C[C@H]/1C[C@H]2[C@H]3CC[C@@H](C(C)=O)[C@]3(C)C[C@@H](O)[C@@H]2[C@]4(C)CCC(=O)\C=C14 [Medrysone]
19 | > 46 µM | Cc1cccc(C(=O)O)c1O [HYDROXYTOLUIC ACID]
20 | > 46 µM | C=C1/C(=C\C=C2/CCC[C@]3(C)[C@@H]([C@H](C)/C=C/[C@@H](O)C4CC4)CC[C@@H]23)C[C@@H](O)C[C@@H]1O [CALCIPOTRIENE]
21 | > 46 µM | CNC[C@H](O)c1cccc(O)c1 [Fenilefrina]
22 | > 46 µM | CC(C)(C(=O)c1cccnc1)c1cccnc1 [Metyrapone]
23 | > 46 µM | CC1(C)S[C@H]2[C@H](NC(=O)[C@@H](N)C3=CC=CC=C3)C(=O)[N@]2[C@H]1C(=O)O[C@@H]4OC(=O)C5=C4C=CC=C5 [Talampicillin hydrochloride]
24 | > 46 µM | CCCCCCCCCCCCCCCCCCCCCC(=O)Nc1ccn([C@@H]2O[C@H](CO)[C@@H](O)[C@@H]2O)c(=O)n1 [ENOCITABINE]
25 | > 46 µM | Cc1ccc([S+](=O)([O-])NC(=O)NN2C[C@H]3CCC[C@@H]3C2)cc1 [Gliclazide]
26 | > 46 µM | CC1(C)C2CC[C@]1(C)[C@@H](O)C2 [BORNEOL]
27 | > 46 µM | CC1CN(c2c(F)c(N)c3c(=O)c(C(=O)O)cn(C4CC4)c3c2F)CC(C)N1 (stereo not drawn) [SPARFLOXACIN]

Row | IC50 of cell viability | Compound
28 | > 46 µM | [O-]C(=O)C1=CC=CC=C1C(C2=CC(=C([O-])C(=C2)I)I)=C\3/C=C(I)\C(=O)\C(=C3)I [IODOPHTHALEINUM NATRICUM]
29 | > 46 µM | O=C([O-])c1ccc(NC(=O)[C@H](Cc2ccc(O)cc2)NC(=O)c2ccccc2)cc1 [Bentiromide]
30 | > 46 µM | CCCCc1oc2ccccc2c1C(=O)c1cc(I)c(OCCN(CC)CC)c(I)c1 [AMIODARONE]
31 | > 46 µM | CC1CCCCN1CCCOC(=O)c1ccccc1 (stereo not drawn) [PIPEROCAINE HYDROCHLORIDE]
32 | > 46 µM | CN1CC\C(CC1)=C2\C3=C(CCC4=CC=CC=C24)SC=C3 [PIZOTIFEN]
33 | > 46 µM | Cc1ncc[nH]1 [2-Methylimidazole]
34 | > 46 µM | COCCc1ccc(OC[C@H](O)CNC(C)C)cc1.COCCc1ccc(OC[C@H](O)CNC(C)C)cc1.O=C(O)[C@@H](O)[C@@H](O)C(=O)O (racemic) [Metoprolol-(+,-) (+)-tartrate salt]
35 | > 46 µM | O=C(NCCc1c[nH]c2ccccc12)c1cccnc1 [NICOTREDOLUM]
36 | > 46 µM | O=C(O)CN(CCOCCOCCN(CC(=O)O)CC(=O)O)CC(=O)O
37 | > 46 µM | C\C1=C\C(=O)C2=C(C=CC=C2)C1=O [MENADIONE]
38 | > 46 µM | Cc1nc(-c2ccc(OCC(C)C)c(C#N)c2)sc1C(=O)O [Febuxostat]
39 | > 46 µM | COC(=O)c1ccccc1C(=O)c1ccc(OCCN2CCCCC2)cc1 [Pitofenona]
40 | > 46 µM | CCCCNc1ccc(C(=O)OCCOCCOCCOCCOCCOCCOCCOCCOCCOC)cc1 [Benzonatate]
41 | > 46 µM | COc1cc(/C=C/C(=O)O[C@H]2CC[C@]34C[C@]35CC[C@]3(C)[C@@H]([C@H](C)CCC=C(C)C)CC[C@@]3(C)C5CCC4C2(C)C)ccc1O (stereo partly drawn) [GAMMA ORYZANOL]
42 | > 46 µM | COc1cc2nc(N3CCN(C(=O)c4ccco4)CC3)nc(N)c2cc1OC [Prazosin]
43 | > 46 µM | CCC1(c2cnc[nH]2)Cc2ccccc2C1 [Atipamezole]
44 | > 46 µM | COCC1=C(C(=O)OC(C)OC(=O)OC(C)C)N2C(=O)C(NC(=O)/C(=N\OC)c3csc(N)n3)C2SC1 (stereo not drawn) [Cefpodoxime proxetil]
45 | > 46 µM | CN(C)C(=O)COC(=O)Cc1ccc(OC(=O)c2ccc(NC(=N)N)cc2)cc1 [CAMOSTAT MESILATE]
46 | > 46 µM | O=C(O)c1ccc[n+]([O-])c1 [Acide oxiniacique]
47 | > 46 µM | CC(C)C[C@@H](N)C(=O)O [D-LEUCINE]
48 | > 46 µM | C1C\N=C(\CN(CC2=CC=CC=C2)C3=CC=CC=C3)N1 [Antazoline hydrochloride]
49 | > 46 µM | CCC1(c2ccccc2)C(=O)NCNC1=O [PRIMIDONE]
50 | > 46 µM | Oc1ccccc1/C=N/Cc1ccccc1 [Norletimol]
51 | > 46 µM | CCCC(O)C(CC)CO (stereo not drawn) [2-ETHYL-1,3-HEXANEDIOL]
52 | > 46 µM | C/C(=C(\CCO)SSCC1CCCO1)N(C=O)Cc1cnc(C)nc1N (stereo not drawn) [Fursultiamine]
53 | > 46 µM | COc1cc(N[C@@H](C)CCCN)c2ncccc2c1 [Primaquine diphosphate]
54 | > 46 µM | C[C@@H](CN(C)C)CN1c2ccccc2Sc2ccccc21.C[C@@H](CN(C)C)CN1c2ccccc2Sc2ccccc21.O=C(O)[C@@H](O)[C@@H](O)C(=O)O [Trimeprazine tartrate]

Row | Compound | IC50 of cell viability
55 | c1ccc(C2(c3ccccc3)CC2C2=NCCN2)cc1 (stereo not drawn) [Cibenzoline succinate] | > 46 µM
56 | CC[C@@]1(c2ccc(N)cc2)CCC(=O)NC1=O [Glutethimide, para-amino] | > 46 µM
57 | Clc1ccc([C@H]2CC3CCC2N3)cn1 (stereo partly drawn) [(?)-Epibatidine] | > 46 µM
58 | CCC(=O)O[C@@](Cc1ccccc1)(c1ccccc1)[C@H](C)CN(C)C | > 46 µM
59 | [H][C@]1(\C=C(/Cl)Cl)[C@]([H])(C(=O)OCC2=C(F)C(F)=CC(F)=C2F)C1(C)C [TRANSFLUTHRIN] | > 46 µM
60 | CC(N)C(=O)c1ccccc1 [(R)-(+)-Cathinone] | > 46 µM
61 | CN1C(=O)CC[S+](=O)([O-])C1c1ccc(Cl)cc1 (stereo not drawn) [CHLORMEZANONE] | > 46 µM
62 | CCN(CC)C(=O)N1CCN(C)CC1.O=C(O)CC(O)(CC(=O)O)C(=O)O [Diethylcarbamazine citrate] | > 46 µM
63 | NC(=O)CN1CC(O)CC1=O (stereo not drawn) [Oxiracetam] | > 46 µM
64 | CC1OC(C)OC(C)O1 (stereo not drawn) [PARALDEHYDE] | > 46 µM
65 | COC\1=C\C=C/2[C@H]3CC4=C5C(=C(OC)C=C4)OC1[C@@]25CCN3C (stereo partly drawn) [Thebaine] | > 46 µM
66 | C[C@]12CCC3C(CCC4=C(Cl)C(=O)CC[C@@]43C)C1CCC2O (stereo partly drawn) [Clostebol] | > 46 µM
67 | c1cc2c(c(N3CCNCC3)c1)OCCO2 [ELTOPRAZINUM] | > 46 µM
68 | OC(c1ccccc1)(c1ccccc1)C1CCNCC1 [Azacyclonol] | > 46 µM
69 | O=[S+]([O-])(c1ccc(Cl)cc1)c1ccc(Cl)cc1 [4,4'-Dichlorodiphenyl sulfone] | > 46 µM
70 | CN1[C@@H]2CC[C@H]1CC(OC(=O)C(CO)c1ccccc1)C2 (stereo partly drawn) [Atropine] | > 46 µM
71 | COC(=O)C(Cl)C(=O)OC [Dimethyl chloromalonate] | > 46 µM
72 | [Na+].C[C@]12CC[C@H]3[C@@H](C\C=C/4C[C@H](CC[C@]34C)O[S]([O-])(=O)=O)[C@@H]1CCC2=O [Dehydroisoandrosterone 3-sulfate sodium] | > 46 µM
73 | COC(C(=O)C(O)C(C)O)C1Cc2cc3cc(OC4CC(OC5CC(O)C(OC)C(C)O5)C(OC(C)=O)C(C)O4)c(C)c(O)c3c(O)c2C(=O)C1OC1CC(OC2CC(OC3CC(C)(O)C(OC(C)=O)C(C)O3)C(O)C(C)O2)C(O)C(C)O1 (stereo not drawn) [CHROMOMYCIN A3] | > 46 µM
